Measured values as given in patent US20220273196A1, “INGESTIBLE DEVICE AND ASSOCIATED METHODS” (Biora Therapeutics, Inc., priority 2017, published 2022).
Entries after “also recorded” stand apart in the source; their conditions may differ.

Legend:
[1] = Dissolving drug pills or powder in water for spectroscopy samples; format: physicochemical; settings: pills or powder (Sigma A5000) in water, 0.1-10% (w/v) samples
Excerpt: Other test samples included anti-inflammatory drugs, e.g., Ibuprofen and Acetaminophen, dissolved in water. Yet other test samples included microcrystalline cellulose, which can be one primary filler material in anti-inflammatory drugs, dissolved in water. […] The Ibuprofen, Acetaminophen and microcrystalline cellulose samples held by the well plate 700B were used to perform spectroscopy of Ibuprofen, Acetaminophen and microcrystalline cellulose in reflectance mode using Benchtop spectrometers #5, #2 and #3. Further, the Ibuprofen and Acetaminophen samples were siphoned from the well plate 700B and combined into a few cuvettes. […] These Ibuprofen and Acetaminophen samples held by the cuvettes were used to perform spectroscopy of Ibuprofen and Acetaminophen in transmission mode using Benchtop spectrometers #4, #5, #2 and #3.
Some test samples included solutions of Ibuprofen having various concentrations. Ibuprofen powder (Sigma 11892) was dissolved in water directly in cuvettes having an optical path thickness of 10 mm. These solutions had Ibuprofen concentrations varying in the range of 0.1-10% (w/v). Other test samples included solutions of Acetaminophen having various concentrations. Acetaminophen powder (Sigma A5000) was dissolved in water directly in cuvettes having an optical path thickness of 10 mm. […]

[2] = test system: murine models of inflammatory bowel disease (IBD); settings: numerous murine models; cited from earlier work
[3] = target: cyclophilin (Homo sapiens, UniProt P62937); settings: cited from earlier work
cyclophilin, sequence (P62937 whole entry): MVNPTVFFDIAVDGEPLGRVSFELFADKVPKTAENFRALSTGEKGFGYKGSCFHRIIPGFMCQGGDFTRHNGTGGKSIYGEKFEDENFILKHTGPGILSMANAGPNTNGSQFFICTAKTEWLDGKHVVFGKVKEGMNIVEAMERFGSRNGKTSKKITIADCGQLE

CC(=O)Nc1ccc(O)cc1 [Acetaminophen]
solubility in water [1]: limited solubility in water; also recorded: poor solubility

L-glutamic acid polymer with L-alanine, L-lysine and L-tyrosine, acetate (salt) [Glatiramer acetate]
effect on inflammation and pathological manifestations of IBD [2]: reduce inflammation and ameliorate the pathological manifestations

C=C/C=C/C[C@@H](C)[C@@H](O)[C@H]1C(=O)N[C@@H](CC)C(=O)N(C)CC(=O)N(C)[C@@H](CC(C)C)C(=O)N[C@@H](C(C)C)C(=O)N(C)[C@@H](CC(C)C)C(=O)N[C@@H](C)C(=O)N[C@H](C)C(=O)N(C)[C@@H](CC(C)C)C(=O)N(C)[C@@H](CC(C)C)C(=O)N(C)[C@@H](C(C)C)C(=O)N1C [voclosporin]
binding affinity for cyclophilin relative to cyclosporine A [3]: comparable
